Key:
[1] = test system: Pseudomonas bacterial cells; assay: Checkerboard of monochloramine and citric acid, bacterial growth in corn mash nutrient broth, 24-well plate (Example 1); for Bacterial growth at 12 hr.: key: −−−: No further growth observed; +++: Growth observed; type: cell-based; parameters: Bacterial growth at 12 hr. / Bacterial growth at 14 hr.: key: −−−: No further growth observed; +++: Growth observed; settings: for Bacterial growth at 12 hr. / Bacterial growth at 14 hr.: 37° C., 600 nm
Procedure: Laboratory experiments were performed to study the microbicidal efficacy of a combination of monochloramine with citric acid.
Pseudomonas bacterial cells were grown in nutrient broth media. The nutrient broth media comprised corn mash (35 wt %) and water. Appropriate amount of culture cells, monochloramine and/or citric acid were transferred into 24-well plate and incubated at 37° C. The 24-well plate layout held samples which contained monochloramine added in concentrations (ppm) of 0.00, 12.50, 50.00 and 100.00 in different rows of well samples, […], in different columns of well samples, in a checkerboard pattern, such as shown in Tables 1 and 2. Bacterial growth was monitored for each sample at 12 hours and 14 hours. Measurement was qualitative based upon measurement in a plate reader. A UV-VIS spectrophotometer was used at measurement wavelength 600 nm.

[2] = test system: Pseudomonas bacterial cells; assay: Checkerboard of monochloramine and citric acid, OD 600 nm growth curves over 48 hours (Example 2, FIGS. 2-5); type: cell-based
Procedure: In this study, Pseudomonas bacterial cells were grown in nutrient broth media. The nutrient broth media comprised corn mash (35 wt %) and water. Appropriate amount of culture cells, monochloramine and/or citric acid were transferred into 24-well plate and incubated at 37° C. for 48 hrs. in a plate reader. The 24-well plate layout held samples which contained monochloramine added in concentrations (ppm) of 0, 12.5, 50 and 100 ppm in different rows of well samples, and citric acid added in concentrations (ppm) of 0, 500, 3,000, 7,000, 10,000, and 20,000 in different columns of well samples, in a checkerboard pattern. Bacterial growth was monitored for each sample using a UV-VIS spectrophotometer to measure optical density (OD) (at measurement wavelength 600 nm) for the samples for 48 hours. The growth curves from the data are plotted in FIGS. 2-5.

NCl [Oxamine (MCA), monochloramine]
inhibition of bacterial growth ([1]; 50 ppm monochloramine added individually): not inhibitory to bacterial growth | control of bacterial growth ([1]; 100 ppm MCA alone): sufficient to control | Bacterial growth at 12 hr. ([1]; MCA 12.5 ppm, CA 0 ppm): +++ | Bacterial growth at 14 hr. ([1]; MCA 12.5 ppm, CA 0 ppm): +++ | Bacterial growth at 12 hr. ([1]; MCA 50 ppm, CA 0 ppm): +++ | Bacterial growth at 14 hr. ([1]; MCA 50 ppm, CA 0 ppm): +++ | control of bacteria growth (OD 600 nm growth curve) ([2]; 12.5 ppm monochloramine alone, FIG. 3): no control of bacteria growth | control of bacteria growth (OD 600 nm growth curve) ([2]; 50 ppm monochloramine alone, FIG. 4): cells growth was delayed | control of bacteria growth (OD 600 nm growth curve) ([2]; 100 ppm monochloramine without citric acid, FIG. 5): total inhibition of bacteria growth

O=C(O)CC(O)(CC(=O)O)C(=O)O [Citric acid (CA), citric acid]
inhibition of bacterial growth ([1]; 10,000 ppm citric acid added individually (no MCA)): not inhibitory to bacterial growth | Bacterial growth at 12 hr. ([1]; MCA 0 ppm, CA 500 ppm): +++ | Bacterial growth at 14 hr. ([1]; MCA 0 ppm, CA 500 ppm): +++ | Bacterial growth at 12 hr. ([1]; MCA 0 ppm, CA 1000 ppm): +++ | Bacterial growth at 14 hr. ([1]; MCA 0 ppm, CA 1000 ppm): +++ | Bacterial growth at 12 hr. ([1]; MCA 0 ppm, CA 3000 ppm): +++ | Bacterial growth at 14 hr. ([1]; MCA 0 ppm, CA 3000 ppm): +++ | Bacterial growth at 12 hr. ([1]; MCA 0 ppm, CA 7000 ppm): +++ | Bacterial growth at 14 hr. ([1]; MCA 0 ppm, CA 7000 ppm): +++ | Bacterial growth at 12 hr. ([1]; MCA 0 ppm, CA 10000 ppm): +++ | Bacterial growth at 14 hr. ([1]; MCA 0 ppm, CA 10000 ppm): +++ | control of bacteria growth (OD 600 nm growth curve) ([2]; citric acid alone, 500 to 20,000 ppm, no MCA, FIG. 2): not all of the evaluated citric acid concentrations controlled bacteria growth
